Experimental data from publication PMC7898037, “Improving mitochondria and ER stability helps eliminate upper motor neuron degeneration that occurs due to mSOD1 toxicity and TDP‐43 pathology” (Clinical and Translational Medicine, 2021).
Values joined by “and” are separate entries in the source; they are usually repeats but may differ in a detail not shown here. Equal values may be shown once.

What was measured:
[1] = test system: UMNs of hSOD1^G93A‐UeGFP mice; test: EM quantification of mitochondria and ER in UMNs, hSOD1^G93A‐UeGFP mice; type: in vivo
Protocol: hSOD1^G93A‐UeGFP, prpTDP‐43^A315T‐UeGFP and WT‐UeGFP mice were weighed and the required NU‐9 dose per weight was calculated (20 or 100 mg/kg), which was administered once daily by oral gavage, starting at postnatal day (P)60 and continuing until P120. Animals from the untreated group received the vehicle (NMP and olive oil) only. For oral administration purposes, 20 ga × 38 mm plastic feeding tubes were used (Instech Laboratories, Inc). The gavage tip was inserted into the mouth directly over the tongue and into the pharynx. While observing the swallowing reflex, the tip was safely and smoothly slid into the esophagus. Once the administration was completed, the gavage tip was pulled straight out.
Mice were perfused with EM grade 4% PFA. One hemisphere of the brain was sectioned at 50 µm thickness coronally on a vibratome (Leica VT1000S, Leica Inc., Nussloch, Germany). The sections were postfixed in 2% PFA and 0.5% glutaraldehyde for 1 h, they were cryoprotected with glycerol–dimethylsulfoxide (DMSO) mixture followed by freeze–thaw at least four times, and treated with 1% sodium borohydride. They were then treated with 0.3% H2O2–10% methanol in TBS (100 mM Tris–HCl and 150 mM NaCl, pH 7.6) and 5% normal goat serum–1% bovine serum albumin in TBS to block nonspecific binding of primary antibody. This mixture was incubated overnight with rat anti‐Ctip2 antibody (1:500, Thermo Fisher Scientific, Rockford, IL, USA). Biotinylated goat anti‐rat IgG (1:500, Vector Laboratories, Burlingame, CA, USA) was used as the secondary antibody, and diaminobenzidine (DAB) was applied as the chromogen (ABC Elite kit, Vector Laboratories, Burlingame, CA, USA). Sections were then postfixed in buffered 2% osmium tetroxide (OsO4) (Electron Microscopy Sciences, Hatfield, PA, USA), rinsed with distilled water, and stained in 1% uranyl acetate (Electron Microscopy Sciences, Hatfield, PA, USA), again rinsed with distilled water, dehydrated in ascending grades of ethanol with transition fluid propylene oxide (Electron Microscopy Sciences, Hatfield, PA, USA), embedded in the resin mixture with Embed 812 (Electron Microscopy Sciences, Hatfield, PA, USA), and cured in a 60°C oven for 3 days. The sections in which primary motor cortex was present and visible under bright‐field illumination on a dissecting scope were selected. Approximately, 5‐mm‐wide × 7‐mm‐long pieces of the motor cortex from these sections were dissected under the microscope mounted on a resin block and were sectioned on a Leica Ultracut UC6 ultramicrotome (Leica Inc., Nussloch, Germany). The motor cortex was further trimmed, and only layer 5 was kept intact for preparing ultrathin sections. UMNs were identified based on the presence of Ctip2 immunohistochemistry (DAB) in their nuclei (Figure S1). Seventy‐nanometer‐thin sections were collected on 200‐mesh copper–palladium grids. Grids were counterstained with 8% radioactive depleted uranyl acetate and 0.2% lead citrate. Grids were examined on FEI Tecnai Spirit G2 TEM (FEI company, Hillsboro, OR, USA), and digital images were captured on a FEI Eagle camera.
EM images of Betz cells of normal control and patients, Ctip2‐positive (Ctip2^+) UMN of WT, and hSOD1^G93A‐UeGFP and prpTDP‐43^A315T‐UeGFP mice (Figure S1) were acquired from 70‐nm ultrathin sections of the motor cortex, and EM images were taken on FEI Tecnai Spirit G2 TEM using FEI Eagle camera. Mitochondria were quantified, as described previously. ^34 Mitochondria with intact outer and inner membrane and with intact cristae were considered healthy. Mitochondria with morphological defects, such as broken outer and/or inner membrane and cristae, were counted individually and were reported as percentage of defective mitochondria. ER that are disintegrated and that display profound expansion were considered unhealthy. Length of ER cisternae was measured using line tool of ImageJ software (NIH) upon calibration for pixels/micrometer using set scale function. […]

[2] = set-up: method as in PMID 22189273, PMID 22837812; conditions: cited from earlier work
[3] = cited from earlier work
[4] = hSOD1G93A-UeGFP (NU-9 100 mg/kg/day)
[5] = hSOD1^G93A‐UeGFP mice, 100 mg/kg/day oral gavage P60–P120, at P120

## C[C@H](Oc1cc(C(F)(F)F)cc(C(F)(F)F)c1)C1CC(=O)CC(=O)C1 [NU‐9]
[1]; [4]
  Fig. 2O group mean (total number of mitochondria/UMN): 21.13
  Fig. 2P group mean (percentage of healthy mitochondria/UMN): 86.3
  Fig. 2R group mean (average length of ER cisternae/UMN): 1.136
[1]; [5]
  average length of ER cisternae: 1.13 ± 0.1 µm
  number of healthy ER cisternae: 14 ± 2 ER cisternae/UMN/section
  percentage of healthy mitochondria in UMNs: 86% ± 3%
  total number of mitochondria in UMNs: 21 ± 2 mitochondria/UMN/section
[2]
  Solubility (aqueous): ≥ 100 µM and ≥ 37 µg/ml
[3]
  Brain penetration: 8 µM and 8.3 µM
  blood brain barrier crossing: crossed the blood brain barrier
[3]; in vivo, mice
  t 1/2: 2.7 h and 2.73 h
[3]; ip, mice, dose 500 mg/kg
  Blood levels (t max): 12 h (500 mg/kg)
[3]; mice
  Oral bioavailability: 94%
[3]; mouse
  CL (mouse): 44 mL/min/kg
[3]; po
  AUC: 3452 h‐ng/ml po
